The text below walks through data of US20120276634A1, “SOMATIC EMBRYOGENESIS AND EMBRYO HARVESTING AND METHOD AND APPARATUS FOR PREPARING PLANT EMBRYOS FOR PLANT PRODUCTION” (ArborGen Inc., priority 2005, published 2012).

Each structure is given as a SMILES string.

In assay [1] the test system is loblolly pine embryogenic cell lines (J and K). The assay is described as follows: Effect of brassinolide in post cryostorage recovery medium on tissue production. It counts as cell-based. The conditions noted are these: 0.1 μM in high casein Mi3. An excerpt: This experiment addresses whether brassinolide in the post-cryogenic storage bulk up medium has a positive effect on tissue recovery and growth enabling faster tissue multiplication and bulk up; and whether there is a cell-line-by-treatment (with or without brassinolide) interaction that can be exploited to enable genotype screening to optimize the best combination for each cell line in terms of both tissue growth and subsequent somatic embryo production. Two post-cryostrorage recovery (bulk up) media treatments were tested: Treatment #1: Mi3 medium (Tables 1 and 2) with high (2.0 g/liter) casein (the improved medium) Treatment #2: The same high casein Mi3 with addition of 0.1 μM Brassinolide Five J cell lines and five K lines were tested. For each cell line, 4 vials (2 post-cryo recovery media×2 replications) were retrieved from cryostorage. Recovered tissue from each vial was transferred to their respective fresh medium at 2 week intervals using a raft transfer method. Weight data was recorded for tissue derived from each vial at the 6th week after cryo-retrieval. At the 6th week, tissues from both reps of each treatment were pooled and maintained on their respective maintenance medium using a tissue dispersion method: 200 mg per sample in 1 ml liquid Mi3 medium dispersed by agitation and poured onto each culture plate. A total of 800 mg of tissue from each cell line×post-cryo media combination were plated on embryo development medium (4 reps of 200 mg/plate) to test embryo production capacity. Total tissue weight at each subculture was recorded to calculate the potential of each treatment for tissue bulk up and embryo production. Harvestable somatic embryos from each plate were recorded at 9 weeks of incubation on MSG embryo development medium (Tables 1 and 2). Embryo production data was analyzed separately for the J and K cell lines using PROCGLM procedure of SAS. Embryo production potential for each treatment was calculated by multiplying embryo production data by the total potential tissue produced in each cell line and treatment.

The test system is the same in assay [2]. The assay is described as follows: Effect of brassinolide in post cryostorage recovery medium on embryo production and embryo production potential. The conditions noted are these: 0.1 μM in high casein Mi3. The assay is classed as cell-based. Here is the method: Five J cell lines and five K lines were tested. For each cell line, 4 vials (2 post-cryo recovery media×2 replications) were retrieved from cryostorage. Recovered tissue from each vial was transferred to their respective fresh medium at 2 week intervals using a raft transfer method. Weight data was recorded for tissue derived from each vial at the 6th week after cryo-retrieval. At the 6th week, tissues from both reps of each treatment were pooled and maintained on their respective maintenance medium using a tissue dispersion method: 200 mg per sample in 1 ml liquid Mi3 medium dispersed by agitation and poured onto each culture plate. A total of 800 mg of tissue from each cell line×post-cryo media combination were plated on embryo development medium (4 reps of 200 mg/plate) to test embryo production capacity. Total tissue weight at each subculture was recorded to calculate the potential of each treatment for tissue bulk up and embryo production. Harvestable somatic embryos from each plate were recorded at 9 weeks of incubation on MSG embryo development medium (Tables 1 and 2). Embryo production data was analyzed separately for the J and K cell lines using PROCGLM procedure of SAS. Embryo production potential for each treatment was calculated by multiplying embryo production data by the total potential tissue produced in each cell line and treatment. The effect of brassinolide in the improved Mi3 bulk up medium on subsequent embryo production was tested. […] Since cell line×media treatment interaction was highly significant, data from each line was analyzed separately for each treatment.

Regarding `CC(C)[C@H](C)[C@@H](O)[C@H](O)[C@@H](C)[C@H]1CC[C@H]2[C@@H]3COC(=O)[C@H]4C[C@H](O)[C@H](O)C[C@]4(C)[C@H]3CC[C@]12C` [brassinolide, Brassinolide], the results for the “amount of tissue compared to the improved medium without brassinolide” value in assay [1] (J lines) and in assay [1] (K lines) were 127% and 191%, respectively. Moreover, the tissue production entry in assay [1] (all 10 cell lines) is listed as “produced highest amount of tissue”. Moreover, the increase in growth entry in assay [1] (slow-recovering cell lines K10, K11 and J4) is reported as “two to three-fold”. The “embryo production potential compared to the improved Mi3 without brassinolide” value in assay [2] (J cell lines) is 149%; in assay [2] (K cell lines), 136%. In assay [2] (both J and K lines), the “embryo production potential, higher compared to the control” value is over 35%.
